In patent publication US20090104145A1, “Mixtures of Anthranilamide Invertebrate Pest Control Agents” (priority 2004, published 2009):
Like-named read-outs stand apart in the source and are kept apart here.

Key:
Assay in all cases: whole plant or invertebrate
Type in all cases: in vivo
[1] = system: diamondback moth (Plutella xylostella)
Description: (§1) The pest control protection afforded by the mixtures or compositions is not limited, however, to these species. The analysis of synergism or antagonism between the mixtures or compositions was determined using Colby's equation. The average % mortality data for the test compounds alone were inserted into the Colby's equation. If the observed average % mortality was higher than “p”, the expected % mortality, the mixture or composition had synergistic effects. If the observed average % mortality was equal to or lower than the expected mortality, the mixture or composition either had no synergistic effect or an antagonistic effect. In these tests, Compound 1 is the compound of Formula 1.
For evaluating control of diamondback moth (Plutella xylostella), cabbage (var. Stonehead) plants were grown in Metromix potting soil in 10-cm pots in aluminum trays to test size (28 days, 3-4 full leaves) the plants were sprayed to the point of runoff using the turntable sprayer as described in Test I. Test compounds were formulated and sprayed on test plants as described for Test I. After drying for 2 hours, the treated leaves were excised and infested with one cabbage looper per cell and covered. The test units were placed on trays and put in a growth chamber at 25° C. and 60% relative humidity for 4 days.

[2] = system: cotton melon aphid (Aphis gossypii Glover); conditions: Aphis gossypii
Description: as §1
(§2) Test compounds were formulated using a solution containing 10% acetone, 90% water and 300 ppm X-77® Spreader Lo-Foam Formula non-ionic surfactant containing alkylarylpolyoxyethylene, free fatty acids, glycols and isopropanol (Loveland Industries, Inc.) to provide the desired concentration in ppm. Formulated test solutions were then applied in 1 mL volumes through a SUJ2 atomizer nozzle with ⅛ JJ custom body (Spraying Systems Co.) positioned 1.27 cm (0.5 inches) above the top of each test unit.
For evaluating control of cotton melon aphid (Aphis gossypii Glover) through contact and/or systemic means, each test unit consisted of a small open container with a 6- to 7-day-old cotton plant inside. This was pre-infested by placing on a leaf of the test plant 30 to 40 aphids on a piece of leaf excised from a culture plant (cut-leaf method). The larvae moved onto the test plant as the leaf piece desiccated. After pre-infestation, the soil of the test unit was covered with a layer of sand.
Test compounds were formulated and sprayed as described for Test A. The applications were replicated three times. After spraying of the formulated test compounds, each test unit was allowed to dry for 1 hour and then a black, screened cap was placed on top. The test units were held for 6 days in a growth chamber at 19-21° C. and 50-70% relative humidity.

[3] = system: potato leafhopper (Empoasca fabae Harris); conditions: Empoasca fabae, Imidacloprid 0 ppm, read-out: % Mortality (observed)
Description: as §1, §2
For evaluating control of potato leafhopper (Empoasca fabae Harris) through contact and/or systemic means, each test unit consisted of a small open container with a 5- to 6-day-old Longio bean plant (primary leaves emerged) inside. White sand was added to the top of the soil, and one of the primary leaves was excised prior to application. Test compounds were formulated and sprayed with 3 replications as described for Test A. After spraying, the test units were allowed to dry for 1 hour before they were infested with 5 potato leafhoppers (18- to 21-day-old adults). A black, screened cap was placed on the top of each container. The test units were held for 6 days in a growth chamber at 19-21° C. and 50-70% relative humidity.

[4] = system: silverleaf whitefly (Bemisia argentifolii Bellows and Perring); conditions: Bemisia argentifolii, in Gossypium hirsutum, read-out: % Mortality (observed)
Description: as §1
For evaluating control of silverleaf whitefly (Bemisia argentifolii Bellows and Perring) through contact and/or systemic means, each test unit consisted of a small open container with a 12- to 14-day-old cotton plant inside. This was pre-infested by placing test units into cages infested with adult whiteflies so that oviposition on the cotton leaves could occur. The adults were removed from the plants with an air-blast nozzle, and the test units were capped. The test units were then stored 2 to 3 days before spraying.
as §2
The results for all experimental compositions in this test were replicated three times. After spraying of the formulated test composition, each test unit was allowed to dry for 1 hour and the cap removed. The test units were held for 13 days in a growth chamber at 28° C. and 50-70% relative humidity.

[5] = system: western flower thrip (Frankliniella occidentalis Pergande); conditions: Frankliniella occidentalis
Description: as §1, §2
For evaluating control of the western flower thrip (Frankliniella occidentalis Pergande) through contact and/or systemic means, each test unit consisted of a small open container with a 5- to 7-day-old bean (var. Soleil) plant inside.
Test solutions were formulated and sprayed with 3 replications as described for Test A. After spraying, the test units were allowed to dry for 1 hour, 22 to 27 adult thrips were added to each unit and then a black, screened cap was placed on top. The test units were held for 7 days at 25° C. and 45-55% relative humidity.

[6] = system: green peach aphid (Myzus persicae Sulzer); conditions: Myzus persicae, in Raphanus sativus
Description: as §1, §2
For evaluating control of green peach aphid (Myzus persicae Sulzer) through contact and/or systemic means, each test unit consisted of a small open container with a 12- to 15-day-old radish plant inside. This was pre-infested by placing on a leaf of the test plant 30 to 40 aphids on a piece of leaf excised from a culture plant (cut-leaf method). The larvae moved onto the test plant as the leaf piece desiccated. After pre-infestation, the soil of the test unit was covered with a layer of sand.
Test compounds were formulated and sprayed as described in Test A, replicated three times. After spraying of the formulated test compound, each test unit was allowed to dry for 1 hour and then a black, screened cap was placed on top. The test units were held for 6 days in a growth chamber at 19-21° C. and 50-70% relative humidity.

[7] = rate 0.5 ppm, read-out: % mortality (obs)
[8] = rate 2 ppm, read-out: % mortality (obs)

With `CNC(=O)c1cc(C#N)cc(C)c1NC(=O)c1cc(Br)nn1-c1ncccc1Cl` [Compound 1, 3-bromo-N-[4-cyano-2-methyl-6-[(methylamino)carbonyl]phenyl]-1-(3-chloro-2-pyridinyl)-1H-pyrazole-5-carboxamide] the mortality at 0.005 ppm ([1]; Plutella xylostella, in Brassica oleracea, rate 0.005 ppm, read-out: % mortality (obs)) was 86%, the mortality at 0.02 ppm ([1]; Plutella xylostella, in Brassica oleracea, rate 0.02 ppm, read-out: % mortality (obs)) was 87% and the mortality at 0.08 ppm ([1]; Plutella xylostella, in Brassica oleracea, rate 0.08 ppm, read-out: % mortality (obs)) was 94%. For the same molecule, the “% mortality” value ([1]; rate 0.02) was 83%, the “% mortality” value ([1]; rate 0.08) was 90% and the mortality at 0.08 ppm ([2]; Compound 1 0.08 ppm, read-out: % Mortality (observed)) was 15%. It also gave a mortality at 0.4 ppm ([2]; Compound 1 0.4 ppm, read-out: % Mortality (observed)) of 18%, a mortality at 1.8 ppm ([2]; Compound 1 1.8 ppm, read-out: % Mortality (observed)) of 66% and a mortality at 0.1 ppm ([2]; rate 0.1 ppm, read-out: % mortality (obs)) of 22%. For the same molecule, the mortality at 0.5 ppm [2, 7] was 37%, the mortality at 2 ppm [2, 8] was 76% and the mortality at 0.3 ppm ([3]; Compound 1 0.3 ppm) was 0%. It also gave a mortality at 2.3 ppm ([3]; Compound 1 2.3 ppm) of 0%, a mortality at 18 ppm ([3]; Compound 1 18 ppm) of 100% and a mortality at 7 ppm ([4]; Compound 1 7 ppm alone) of 58%. The mortality at 9 ppm ([4]; Compound 1 9 ppm alone) was 69%, the mortality at 12 ppm ([4]; Compound 1 12 ppm alone) was 72% and the mortality at 0.3 ppm ([5]; Compound 1 0.3 ppm alone, read-out: % Mortality (observed)) was 25%. For the same molecule, the mortality at […] ([5]; Compound 1 1.3 ppm alone, read-out: % Mortality (observed)) was 55%, the mortality at 6 ppm ([5]; Compound 1 6 ppm alone, read-out: % Mortality (observed)) was 72% and the mortality at 0.3 ppm ([5]; rate 0.3 ppm, read-out: % mortality (obs)) was 42%. For the same molecule, the mortality at […] ([5]; rate 1.5 ppm, read-out: % mortality (obs)) was 50%, the mortality at 6 ppm ([5]; rate 6 ppm, read-out: % mortality (obs)) was 61% and the mortality at 0.5 ppm ([6]; 0.5 ppm, read-out: % Mortality (observed)) was 14%. It also gave a mortality at 1.1 ppm ([6]; 1.1 ppm, read-out: % Mortality (observed)) of 22%, a mortality at 2.1 ppm ([6]; 2.1 ppm, read-out: % Mortality (observed)) of 49% and a mortality at 0.5 ppm [6, 7] of 21%. It also gave a mortality at 1 ppm ([6]; rate 1 ppm, read-out: % mortality (obs)) of 35% and a mortality at 2 ppm [6, 8] of 71%.
